Reference: patent US20020041848A1, “Chemically Specific Imaging Of Tissue” (priority 1999, published 2002)

Experiments:
lab rats = settings: cited from earlier work
human finger tip = settings: in vivo, 5 min
Procedure: Raman spectra were collected from a human finger tip irradiated with a near-infrared laser beam using conventional equipment, including a light collection and analysis system. Test agents were applied to the finger tip and allowed to penetrate the tissue for 5 minutes before rinsing the finger tip with acetone.

Structure (SMILES)	symptoms at about double the 10-15% body water replacement (lab rats; lab rats, continuous regimen of D2O)	share of total body water weight replaced by D2O below which there are no signs of ingestion or poisoning (lab rats; rat, in vivo)	depth of penetration indicated by persistence of peak near 2200 cm^-1 (human finger tip)
[2H]O[2H] [D2O]	severe	10-15%	
[2H]C([2H])([2H])C([2H])([2H])C([2H])([2H])C([2H])([2H])C([2H])([2H])C([2H])([2H])C([2H])([2H])C([2H])([2H])C([2H])([2H])C([2H])([2H])C([2H])([2H])C([2H])([2H])C([2H])([2H])C([2H])([2H])C([2H])([2H])C([2H])([2H])C([2H])([2H])C(=O)O [stearic acid-d35]			1-2 mm
